# Data published in patent US20250011368A1, “DLL3 TARGETING PEPTIDES AND CONSTRUCTS THEREOF” (MARIANA ONCOLOGY INC., priority 2023, published 2025).
# Numbered stars: 1 amine (or outer) side, 2 acyl side, 3 side chain; on linkers, the order of the positions; unused ones are H or OH. Bridge positions count the residues as written; N and C are the ends. Square brackets hold non-standard residues; d marks the D form. Peptide text beside a SMILES is read from it. * marks the point of attachment. ξ: configuration not given here. TtdsdLys(DOTA)NH2 = NC(=O)[C@@H](CCCCNC(=O)CN1CCN(CC(=O)O)CCN(CC(=O)O)CCN(CC(=O)O)CC1)NC(=O)CCC(=O)NCCCOCCOCCOCCCN*; DOTA = O=C(O)CN1CCN(CC(=O)O)CCN(CC(=O)*)CCN(CC(=O)O)CC1; Phe(4-CF3) = N[C@@H](Cc1ccc(C(F)(F)F)cc1)C(=O)O; Trp(5-F) = N[C@@H](Cc1c[nH]c2ccc(F)cc12)C(=O)O; Phe(2-CF3) = N[C@@H](Cc1ccccc1C(F)(F)F)C(=O)O; Trp(7-aza) = N[C@@H](Cc1c[nH]c2ncccc12)C(=O)O; Pro(trans-4-F) = O=C(O)[C@@H]1C[C@@H](F)CN1; 2Nal = N[C@@H](Cc1ccc2ccccc2c1)C(=O)O; Nva(3-Et) = CCC(CC)[C@H](N)C(=O)O; ξThr(3R) = C[C@@H](O)C(N)C(=O)O; Cha = N[C@@H](CC1CCCCC1)C(=O)O; Cba = N[C@@H](CC1CCC1)C(=O)O; Chg = N[C@H](C(=O)O)C1CCCCC1; CH2 = C([*:1])[*:2]
# Target: T1, human DLL3 (Homo sapiens, UniProt Q9NYJ7)
# T1 sequence (Q9NYJ7 27-618): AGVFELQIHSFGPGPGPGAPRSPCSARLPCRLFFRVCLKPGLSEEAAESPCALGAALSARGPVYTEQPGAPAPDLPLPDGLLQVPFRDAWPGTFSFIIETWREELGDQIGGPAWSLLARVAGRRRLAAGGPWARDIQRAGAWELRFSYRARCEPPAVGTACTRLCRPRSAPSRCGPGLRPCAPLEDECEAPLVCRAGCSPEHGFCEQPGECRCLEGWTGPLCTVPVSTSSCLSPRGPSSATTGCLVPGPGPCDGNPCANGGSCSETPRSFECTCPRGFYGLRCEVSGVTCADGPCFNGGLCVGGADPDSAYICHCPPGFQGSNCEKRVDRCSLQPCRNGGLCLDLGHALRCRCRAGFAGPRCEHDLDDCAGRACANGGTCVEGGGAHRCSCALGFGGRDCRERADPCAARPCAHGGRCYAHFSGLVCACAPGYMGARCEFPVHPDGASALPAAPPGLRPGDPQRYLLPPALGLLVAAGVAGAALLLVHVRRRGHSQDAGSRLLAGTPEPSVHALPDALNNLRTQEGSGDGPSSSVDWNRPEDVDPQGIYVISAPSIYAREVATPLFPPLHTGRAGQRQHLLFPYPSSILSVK
# Test: Affinity determination by Surface Plasmon Resonance (SPR)
# Format: binding
# Conditions: 25° C., biotinylated human DLL3 immobilized on streptavidin sensor chip, 1:1 binding model; read-out: SPR KD
# In short: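 Kinetic and affinity constants were derived by fitting sensorgrams to a 1:1 binding model. Graded compound concentrations flowed at 100 μL/minute in 20 mM phosphate running buffer with 2% DMSO over streptavidin-immobilized biotinylated human DLL3, reference-subtracted.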
row,Kd,Structure (SMILES)
1,1 to 10 nM,"CC(=O)N[C@@H](Cc1c[nH]c2ccc(F)cc12)C(=O)N[C@H](C(=O)N[C@@H](CC1CCCCC1)C(=O)N[C@H]1CSSC[C@@H](C(=O)N[C@@H](Cc2c[nH]c3ncccc23)C(=O)N2C[C@H](F)C[C@H]2C(=O)N[C@H](CCCCNC(=O)CN2CCN(CC(=O)O)CCN(CC(=O)O)CCN(CC(=O)O)CC2)C(N)=O)NC(=O)[C@H](CC(=O)O)NC(=O)[C@H](Cc2cnc[nH]2)NC(=O)[C@H](Cc2ccc(C(F)(F)F)cc2)NC(=O)[C@H](CC(N)=O)NC(=O)[C@H](CC(N)=O)NC1=O)[C@@H](C)O [compound 149, Ac-(5Fluoro-W)-T-(CHA)-C(3)-N-N-(4CF3-F)-H-D-C(3)-(7Aza-W)-(trans4Fluoro-P)-[D-Lys(DOTA)]-NH2] (Ac-[Trp(5-F)]T[Cha]CNN[Phe(4-CF3)]HDC[Trp(7-aza)][Pro(trans-4-F)][dK](DOTA)-NH2; disulfide 4-10)"
2,1 to 10 nM,"CC(=O)N[C@@H](Cc1c[nH]c2ccc(F)cc12)C(=O)N[C@H](C(=O)N[C@@H](CC1CCC1)C(=O)N[C@H]1CSSC[C@@H](C(=O)N[C@@H](Cc2c[nH]c3ncccc23)C(=O)N2C[C@H](F)C[C@H]2C(=O)N[C@H](CCCCNC(=O)CN2CCN(CC(=O)O)CCN(CC(=O)O)CCN(CC(=O)O)CC2)C(N)=O)NC(=O)[C@H](CC(=O)O)NC(=O)[C@H](Cc2cnc[nH]2)NC(=O)[C@H](Cc2ccc(C(F)(F)F)cc2)NC(=O)[C@H](CC(N)=O)NC(=O)[C@H](CC(N)=O)NC1=O)[C@@H](C)O [compound 150, Ac-(5Fluoro-W)-T-(CBA)-C(3)-N-N-(4CF3-F)-H-D-C(3)-(7Aza-W)-(trans4Fluoro-P)-[D-Lys(DOTA)]-NH2] (Ac-[Trp(5-F)]T[Cba]CNN[Phe(4-CF3)]HDC[Trp(7-aza)][Pro(trans-4-F)][dK](DOTA)-NH2; disulfide 4-10)"
3,1 to 10 nM,"CC(=O)N[C@@H](Cc1c[nH]c2ccc(F)cc12)C(=O)N[C@H](C(=O)N[C@H](C(=O)N[C@H]1CSSC[C@@H](C(=O)N[C@@H](Cc2c[nH]c3ncccc23)C(=O)N2C[C@H](F)C[C@H]2C(=O)N[C@H](CCCCNC(=O)CN2CCN(CC(=O)O)CCN(CC(=O)O)CCN(CC(=O)O)CC2)C(N)=O)NC(=O)[C@H](CC(=O)O)NC(=O)[C@H](Cc2cnc[nH]2)NC(=O)[C@H](Cc2ccc(C(F)(F)F)cc2)NC(=O)[C@H](CC(N)=O)NC(=O)[C@H](CC(N)=O)NC1=O)C1CCCCC1)[C@@H](C)O [compound 151, Ac-(5Fluoro-W)-T-(Chg)-C(3)-N-N-(4CF3-F)-H-D-C(3)-(7Aza-W)-(trans4Fluoro-P)-[D-Lys(DOTA)]-NH2] (Ac-[Trp(5-F)]T[Chg]CNN[Phe(4-CF3)]HDC[Trp(7-aza)][Pro(trans-4-F)][dK](DOTA)-NH2; disulfide 4-10)"
4,1 to 10 nM,"CC(=O)N[C@@H](Cc1c[nH]c2ccc(F)cc12)C(=O)N[C@H](C(=O)N[C@@H](Cc1ccccc1C(F)(F)F)C(=O)N[C@H]1CSSC[C@@H](C(=O)N[C@@H](Cc2c[nH]c3ncccc23)C(=O)N2C[C@H](F)C[C@H]2C(=O)N[C@H](CCCCNC(=O)CN2CCN(CC(=O)O)CCN(CC(=O)O)CCN(CC(=O)O)CC2)C(N)=O)NC(=O)[C@H](CC(=O)O)NC(=O)[C@H](Cc2cnc[nH]2)NC(=O)[C@H](Cc2ccc(C(F)(F)F)cc2)NC(=O)[C@H](CC(N)=O)NC(=O)[C@H](CC(N)=O)NC1=O)[C@@H](C)O [compound 152, Ac-(5Fluoro-W)-T-(2CF3-F)-C(3)-N-N-(4CF3-F)-H-D-C(3)-(7Aza-W)-(trans4Fluoro-P)-[D-Lys(DOTA)]-NH2] (Ac-[Trp(5-F)]T[Phe(2-CF3)]CNN[Phe(4-CF3)]HDC[Trp(7-aza)][Pro(trans-4-F)][dK](DOTA)-NH2; disulfide 4-10)"
5,1 to 10 nM,"CC[C@H](C)[C@H](NC(=O)[C@@H](NC(=O)[C@H](Cc1c[nH]c2ccccc12)NC(C)=O)[C@@H](C)O)C(=O)N[C@H]1CSCSC[C@@H](C(=O)N[C@@H](Cc2c[nH]c3ccccc23)C(=O)N2CCC[C@H]2C(=O)N[C@H](CCCCNC(=O)CN2CCN(CC(=O)O)CCN(CC(=O)O)CCN(CC(=O)O)CC2)C(N)=O)NC(=O)[C@H](CC(=O)O)NC(=O)[C@H](Cc2cnc[nH]2)NC(=O)[C@H](Cc2c[nH]c3ccccc23)NC(=O)[C@H](CC(N)=O)NC(=O)[C@H](CC(N)=O)NC1=O [compound 164, Ac-WTI-C(1)-NNWHD-C(1)-WP-[D-Lys(DOTA)]-NH2] (Ac-WTICNNWHDCWP[dK](DOTA)-NH2; linker 4-10 via CH2)"
6,< 1 nM,"CC[C@H](C)[C@H](NC(=O)[C@@H](NC(=O)[C@H](Cc1c[nH]c2ccccc12)NC(C)=O)[C@@H](C)O)C(=O)N[C@H]1CSSC[C@@H](C(=O)N[C@@H](Cc2c[nH]c3ccccc23)C(=O)N2CCC[C@H]2C(=O)NCC(=O)NCC(=O)NCCCOCCOCCOCCCNC(=O)CCC(=O)N[C@H](CCCCNC(=O)CN2CCN(CC(=O)O)CCN(CC(=O)O)CCN(CC(=O)O)CC2)C(N)=O)NC(=O)[C@H](CC(=O)O)NC(=O)[C@H](Cc2cnc[nH]2)NC(=O)[C@H](Cc2ccc3ccccc3c2)NC(=O)[C@H](CC(N)=O)NC(=O)[C@H](CC(N)=O)NC1=O [compound 167, Ac-W-T-I-C(3)-N-N-(2Nal)-H-D-C(3)-W-P-G-G-TTDS-[D-Lys(DOTA)]-NH2] (Ac-WTICNN[2Nal]HDCWPGG-{TtdsdLys(DOTA)NH2}; disulfide 4-10)"
7,< 1 nM,"CCC(CC)[C@H](NC(=O)C(NC(=O)[C@H](Cc1c[nH]c2ccccc12)NC(C)=O)[C@@H](C)O)C(=O)N[C@H]1CSSC[C@@H](C(=O)N[C@@H](Cc2c[nH]c3ncccc23)C(=O)N2CCC[C@H]2C(=O)N[C@H](CCCCNC(=O)CN2CCN(CC(=O)O)CCN(CC(=O)O)CCN(CC(=O)O)CC2)C(N)=O)NC(=O)[C@H](CC(=O)O)NC(=O)[C@H](Cc2cnc[nH]2)NC(=O)[C@H](Cc2ccc3ccccc3c2)NC(=O)[C@H](CC(N)=O)NC(=O)[C@H](CC(N)=O)NC1=O (stereo partly drawn) [compound 193, Ac-W-T-(Env)-C(3)-N-N-(2Nal)-H-D-C(3)-(7-Aza-W)-P-[D-Lys(DOTA)]-NH2] (Ac-W[ξThr(3R)][Nva(3-Et)]CNN[2Nal]HDC[Trp(7-aza)]P[dK](DOTA)-NH2; disulfide 4-10)"
8,< 1 nM,"CC(=O)N[C@@H](Cc1c[nH]c2ccccc12)C(=O)NC(C(=O)N[C@H](C(=O)N[C@H]1CSSC[C@@H](C(=O)N[C@@H](Cc2c[nH]c3ncccc23)C(=O)N2CCC[C@H]2C(=O)N[C@H](CCCCNC(=O)CN2CCN(CC(=O)O)CCN(CC(=O)O)CCN(CC(=O)O)CC2)C(N)=O)NC(=O)[C@H](CC(=O)O)NC(=O)[C@H](Cc2cnc[nH]2)NC(=O)[C@H](Cc2ccc3ccccc3c2)NC(=O)[C@H](CC(N)=O)NC(=O)[C@H](C)NC1=O)C1CCCCC1)[C@@H](C)O (stereo partly drawn) [compound 194, Ac-W-T-(Chg)-C(3)-A-N-(2Nal)-H-D-C(3)-(7-Aza-W)-P-[D-Lys(DOTA)]-NH2] (Ac-W[ξThr(3R)][Chg]CAN[2Nal]HDC[Trp(7-aza)]P[dK](DOTA)-NH2; disulfide 4-10)"
9,< 1 nM,"CC(=O)N[C@@H](Cc1c[nH]c2ccccc12)C(=O)N[C@H](C(=O)N[C@@H](CC1CCCCC1)C(=O)N[C@H]1CSSC[C@@H](C(=O)N[C@@H](Cc2c[nH]c3ncccc23)C(=O)N2CCC[C@H]2C(=O)N[C@H](CCCCNC(=O)CN2CCN(CC(=O)O)CCN(CC(=O)O)CCN(CC(=O)O)CC2)C(N)=O)NC(=O)[C@H](CC(=O)O)NC(=O)[C@H](Cc2cnc[nH]2)NC(=O)[C@H](Cc2ccc3ccccc3c2)NC(=O)[C@H](CC(N)=O)NC(=O)[C@H](C)NC1=O)[C@@H](C)O [compound 195, Ac-W-T-(CHA)-C(3)-A-N-(2Nal)-H-D-C(3)-(7-Aza-W)-P-[D-Lys(DOTA)]-NH2] (Ac-WT[Cha]CAN[2Nal]HDC[Trp(7-aza)]P[dK](DOTA)-NH2; disulfide 4-10)"
10,< 1 nM,"CCC(CC)[C@H](NC(=O)[C@@H](NC(=O)[C@H](Cc1c[nH]c2ccccc12)NC(C)=O)[C@@H](C)O)C(=O)N[C@H]1CSSC[C@@H](C(=O)N[C@@H](Cc2c[nH]c3ncccc23)C(=O)N2CCC[C@H]2C(=O)N[C@H](CCCCNC(=O)CN2CCN(CC(=O)O)CCN(CC(=O)O)CCN(CC(=O)O)CC2)C(N)=O)NC(=O)[C@H](CC(=O)O)NC(=O)[C@H](Cc2cnc[nH]2)NC(=O)[C@H](Cc2ccc3ccccc3c2)NC(=O)[C@H](CC(N)=O)NC(=O)[C@H](C)NC1=O [compound 196, Ac-W-T-(Env)-C(3)-A-N-(2Nal)-H-D-C(3)-(7-Aza-W)-P-[D-Lys(DOTA)]-NH2] (Ac-WT[Nva(3-Et)]CAN[2Nal]HDC[Trp(7-aza)]P[dK](DOTA)-NH2; disulfide 4-10)"
11,< 1 nM,"CC(=O)N[C@@H](Cc1c[nH]c2ccccc12)C(=O)N[C@H](C(=O)N[C@H](C(=O)N[C@H]1CSSC[C@@H](C(=O)N[C@@H](Cc2c[nH]c3ncccc23)C(=O)N2CCC[C@H]2C(=O)N[C@H](CCCCNC(=O)CN2CCN(CC(=O)O)CCN(CC(=O)O)CCN(CC(=O)O)CC2)C(N)=O)NC(=O)[C@H](CC(=O)O)NC(=O)[C@H](Cc2cnc[nH]2)NC(=O)[C@H](Cc2ccc3ccccc3c2)NC(=O)[C@H](C)NC(=O)[C@H](CC(N)=O)NC1=O)C1CCCCC1)[C@@H](C)O [compound 197, Ac-W-T-(Chg)-C(3)-N-A-(2Nal)-H-D-C(3)-(7-Aza-W)-P-[D-Lys(DOTA)]-NH2] (Ac-WT[Chg]CNA[2Nal]HDC[Trp(7-aza)]P[dK](DOTA)-NH2; disulfide 4-10)"
